Assay results: article PMC11192564 (Cell metabolism, 2023)

Assays:
SAMTOR [1] = target: T1, SAMTOR (Homo sapiens, UniProt Q1RMZ1); experiment: microscale thermophoresis; format: binding
T1 sequence (Q1RMZ1 1-405): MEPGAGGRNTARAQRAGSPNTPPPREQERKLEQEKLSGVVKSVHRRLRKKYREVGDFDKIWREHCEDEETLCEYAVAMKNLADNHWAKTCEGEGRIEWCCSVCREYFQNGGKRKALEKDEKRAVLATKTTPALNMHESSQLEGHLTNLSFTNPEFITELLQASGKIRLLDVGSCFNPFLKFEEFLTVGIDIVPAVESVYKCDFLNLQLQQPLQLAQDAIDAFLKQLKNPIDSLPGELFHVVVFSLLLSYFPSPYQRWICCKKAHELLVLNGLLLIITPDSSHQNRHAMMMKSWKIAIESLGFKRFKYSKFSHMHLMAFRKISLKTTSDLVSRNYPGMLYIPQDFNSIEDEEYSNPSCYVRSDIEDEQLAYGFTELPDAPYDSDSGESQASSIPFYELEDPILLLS

Samtor [2] = target: T2, Samtor (Mus musculus, UniProt Q8BXK4); experiment: microscale thermophoresis; format: binding
T2 sequence (Q8BXK4 1-403): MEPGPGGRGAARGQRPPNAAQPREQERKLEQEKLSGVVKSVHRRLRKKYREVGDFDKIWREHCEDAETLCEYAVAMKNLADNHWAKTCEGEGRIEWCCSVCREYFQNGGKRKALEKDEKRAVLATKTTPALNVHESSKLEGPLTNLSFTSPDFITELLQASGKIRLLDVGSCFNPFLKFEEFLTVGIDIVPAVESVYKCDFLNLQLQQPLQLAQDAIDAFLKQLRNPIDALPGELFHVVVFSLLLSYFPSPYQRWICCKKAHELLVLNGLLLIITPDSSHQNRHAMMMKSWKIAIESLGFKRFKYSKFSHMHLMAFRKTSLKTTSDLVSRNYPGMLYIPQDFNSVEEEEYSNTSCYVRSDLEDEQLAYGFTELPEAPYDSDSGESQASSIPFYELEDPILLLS

Kd (SAMTOR [1]): ~7 µM
Kd (Samtor [2]): ~10 µM
SMILES: C[S+](CC[C@H](N)C(=O)[O-])C[C@H]1O[C@@H](n2cnc3c(N)ncnc32)[C@H](O)[C@@H]1O (some centres unmarked) [SAM]
